Consider two compounds from article PMC5848512, “The Penicillium chrysogenum transporter PcAraT enables high-affinity, glucose-insensitive L-arabinose transport in Saccharomyces cerevisiae” (Biotechnology for Biofuels, 2018).

One test addresses T1, PcAraT (Penicillium rubens, UniProt B6HE12).
T1 construct: gene Pc20g01790; full-length ORF, codon-pair optimized synthetic gene, pRS313-PcaraT (HXT7 promoter) in S. cerevisiae DS68625 (hxt1-7, gal2 deleted)
T1 sequence (B6HE12 1-511): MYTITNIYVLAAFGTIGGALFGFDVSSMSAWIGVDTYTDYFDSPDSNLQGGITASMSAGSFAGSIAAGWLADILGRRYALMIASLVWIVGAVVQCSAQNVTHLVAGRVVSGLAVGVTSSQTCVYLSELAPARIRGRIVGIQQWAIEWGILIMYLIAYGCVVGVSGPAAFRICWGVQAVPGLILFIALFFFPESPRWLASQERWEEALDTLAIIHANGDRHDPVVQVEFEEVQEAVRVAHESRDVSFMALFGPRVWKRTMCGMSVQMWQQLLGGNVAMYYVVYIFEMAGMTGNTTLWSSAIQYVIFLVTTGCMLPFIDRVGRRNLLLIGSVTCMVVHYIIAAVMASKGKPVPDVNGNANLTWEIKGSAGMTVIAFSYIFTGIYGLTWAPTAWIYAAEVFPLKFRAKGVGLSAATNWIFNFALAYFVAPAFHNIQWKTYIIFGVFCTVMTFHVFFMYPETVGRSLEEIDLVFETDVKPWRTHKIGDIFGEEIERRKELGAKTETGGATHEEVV
Briefly: inhibition of […]-L-arabinose uptake in transporter-deleted yeast cells. Format: cell-based.

A further test concerns the target T2, Gal2 (Saccharomyces cerevisiae, UniProt P13181).
T2 construct: full-length, pRS313-GAL2 (HXT7 promoter) in S. cerevisiae DS68625 (hxt1-7, gal2 deleted)
T2 sequence (P13181 1-574): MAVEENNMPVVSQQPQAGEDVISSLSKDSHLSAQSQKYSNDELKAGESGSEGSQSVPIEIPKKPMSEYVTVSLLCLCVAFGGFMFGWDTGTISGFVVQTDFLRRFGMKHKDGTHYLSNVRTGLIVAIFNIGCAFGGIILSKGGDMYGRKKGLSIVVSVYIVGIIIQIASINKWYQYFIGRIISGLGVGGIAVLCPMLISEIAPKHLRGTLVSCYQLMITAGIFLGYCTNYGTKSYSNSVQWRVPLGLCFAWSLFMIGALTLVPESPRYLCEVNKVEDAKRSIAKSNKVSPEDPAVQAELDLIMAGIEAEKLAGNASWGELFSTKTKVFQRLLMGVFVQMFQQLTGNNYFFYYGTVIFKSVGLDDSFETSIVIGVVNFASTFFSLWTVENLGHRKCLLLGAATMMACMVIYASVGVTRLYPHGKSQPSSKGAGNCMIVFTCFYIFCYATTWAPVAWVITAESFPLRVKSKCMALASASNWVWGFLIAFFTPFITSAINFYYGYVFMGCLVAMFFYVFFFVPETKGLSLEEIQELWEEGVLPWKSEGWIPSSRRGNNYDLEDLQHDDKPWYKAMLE
The description is as above. Type of test: cell-based.

Take `OC[C@H]1OC(O)[C@H](O)[C@@H](O)[C@@H]1O` (stereo partly drawn) [D-glucose]: the inhibition (commonly how much of the control response was suppressed) at 100000 µM is 63% against PcAraT and 85% on Gal2.

In the case of `OC1OC[C@@H](O)[C@H](O)[C@H]1O` (stereo partly drawn) [D-xylose], the inhibition at 100000 µM against PcAraT was 22%; against Gal2, 29%.
